“Also recorded” adds a separate entry of the source.
Columns and labels:
[1] = system: MDCK cells
[2] = system: Caco-2 cell monolayer; conditions: literature reports; cited from earlier work

## CCCCCCCCCC(=O)[O-].[Na+] [sodium caprate]
[1]
  permeability enhancing effect on high molecular weight model substance FD-10 (relative Papp): nonspecifically increased the permeability; also recorded: marked permeability enhancing effect
  permeability enhancing effect on low molecular weight model substance Flu (relative Papp): nonspecifically increased the permeability; also recorded: marked permeability enhancing effect
  permeability enhancing effect on low molecular weight model substance LY (relative Papp): nonspecifically increased the permeability; also recorded: marked permeability enhancing effect
[2]
  side effects / cell damage due to relatively strong ability to open tight junctions: risk of cell damage have been observed

— US20060025346A1, “Permeability enhancer” (priority 2004, published 2006)
